Experimental data published in patent US12637720B2, “Molecular subtyping of small cell lung cancer to predict therapeutic responses” (Board of Regents, The University of Texas System, priority 2019, dated 2026).

How the values were obtained:
[1] = test system: SCLC cell lines; assay: Cisplatin CellTiter-Glo cell viability, IC50 compared between SCLC subtypes; assay type: cell-based
Description: Drug response data. With the exception of cisplatin (Allison Stewart et al., 2017; Gay et al., 2019), drug response data included publicly available data sets (Polley et al., 2016). For cisplatin, cell lines were plated at 2,000 cells per well in 96-well plates 24 hours prior to treatment with drug using standard cell culture conditions. Each line was treated, in triplicate, with cisplatin at starting concentration of 10 μmon followed by 1:3 serial dilutions and DMSO-only control. Following 120-hour incubations, cell viability was assessed using CellTiter-Glo Luminescent Cell Viability Assay (Promega). IC50 values were estimated using software program drexplorer with fitting of multiple dose-response models and selection of best model using the residual standard error.
While there are biological differences between each subtype, it not known to what extent these differences yield distinct responses to anti-cancer therapies. To investigate subtype-specific vulnerabilities, SCLC cell line in vitro drug response data for over 500 drugs were used (Gay, 2019; Polley et al., 2016). […] For each subtype, a drug or drug class that worked especially well was identified, often accompanied by differential expression of the drug target or putative predictive biomarker.

[2] = test system: MDA-SC53 and MDA-SC68 CDX models; assay: Cisplatin treatment of CTC-derived xenograft (CDX) models; assay type: in vivo, mice
From the text: Circulating-tumor cell derived xenograft model generation. Patients diagnosed with SCLC at the University of Texas MD Anderson Cancer Center were selected on the basis of extensive-stage disease irrespective of age, gender or other clinical criteria. These patients underwent informed consent to Institutional Review Board (IRB)-approved protocol LAB10-0442 (“Evaluation of blood-based test for the detection of circulating tumor cells and circulating proteins and microRNAs and molecular analysis for polymorphisms and mutations”) and blood was collected. Technical details are as previously described (Stewart et al., 2020b). One vial of blood was collected for isolation and banking of plasma and peripheral blood mononuclear cells for use as a normal control. […] Mice were monitored for formation of a flank tumor and were euthanized when tumor burden reached 1000-1500 mm^3. […]
Single-cell RNAseq. […] Cells were then stained for anti-human HLA A647 (Biolegend 311414), Calcein AM (C3100MP) and DAPI (Lifetech D1306, 1 μg/mL) and sorted by Fluorescence-Activated Cell sorting (FACS) to select only live, human cells for downstream single cell transcriptomic analyses. Sorted cells were washed once with 0.04% BSA in PBS and counted on Countess II automated cell counter (ThermoFisher). […]

[3] = test system: platinum-resistant SCLC; details: patients with platinum-resistant SCLC; cited from earlier work
[4] = test system: relapsed SCLC; details: single-agent, relapsed SCLC patients, KEYNOTE-158; cited from earlier work
[5] = biological target: T1, DLL3 (Homo sapiens, UniProt Q9NYJ7); details: cited from earlier work
T1 construct: host or cells: SCLC tumours of patients in the clinical trial (endogenous DLL3)
T1 sequence (Q9NYJ7 27-618): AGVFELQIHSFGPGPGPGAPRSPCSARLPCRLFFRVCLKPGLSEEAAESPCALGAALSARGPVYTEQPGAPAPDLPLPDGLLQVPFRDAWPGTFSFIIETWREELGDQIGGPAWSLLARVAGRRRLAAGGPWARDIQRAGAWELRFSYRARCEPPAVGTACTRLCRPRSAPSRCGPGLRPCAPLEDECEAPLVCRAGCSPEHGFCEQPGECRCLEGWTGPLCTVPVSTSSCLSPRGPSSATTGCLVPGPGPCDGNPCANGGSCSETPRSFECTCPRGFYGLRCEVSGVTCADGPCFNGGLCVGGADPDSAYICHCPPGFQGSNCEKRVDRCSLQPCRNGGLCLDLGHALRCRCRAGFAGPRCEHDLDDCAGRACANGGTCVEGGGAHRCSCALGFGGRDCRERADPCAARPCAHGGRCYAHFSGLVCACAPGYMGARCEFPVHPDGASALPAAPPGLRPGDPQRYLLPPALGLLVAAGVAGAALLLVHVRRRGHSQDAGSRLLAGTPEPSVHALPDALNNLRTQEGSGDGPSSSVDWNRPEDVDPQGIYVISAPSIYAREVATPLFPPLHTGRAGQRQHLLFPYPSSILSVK

## N.N.[Cl][Pt][Cl] [cisplatin]
[1]; SCLC-A
  cisplatin sensitivity of SCLC-A models: range of sensitivities
[1]; SCLC-I
  cisplatin sensitivity of SCLC-I models: resistant
[1]; SCLC-N
  cisplatin sensitivity of SCLC-N models: resistant
[1]; SCLC-P, mean IC50 versus other subtypes, trend
  cisplatin sensitivity of SCLC-P models: most sensitive
[2]; MDA-SC68rel model, relapsed after in vivo cisplatin treatment
  response of CDX model to cisplatin: cisplatin-resistant
[2]; treatment-naive MDA-SC68 parental model
  response of CDX model to cisplatin: cisplatin-sensitive

## nivolumab: anti-PD-1 antibody described in WO2006/121168
[3]
  overall survival benefit versus chemotherapy: preferential OS benefit

## pembrolizumab: anti-PD-1 antibody described in WO2009/114335
[4]
  response rate: 19%

B1: rovalpituzumab tesirine: ADC targeting the inhibitory Notch ligand Delta-like ligand 3 (DLL3) (conjugate, chains of the INN, looked up)
VH: QVQLVQSGAEVKKPGASVKVSCKASGYTFTNYGMNWVRQAPGQGLEWMGWINTYTGEPTYADDFKGRVTMTTDTSTSTAYMELRSLRSDDTAVYYCARIGDSSPSDYWGQGTLVTVSS
VL: EIVMTQSPATLSVSPGERATLSCKASQSVSNDVVWYQQKPGQAPRLLIYYASNRYTGIPARFSGSGSGTEFTLTISSLQSEDFAVYYCQQDYTSPWTFGQGTKLEIK
modifications: tesirine
[5]; Phase II clinical trial for SCLC
  clinical activity: only modest activity
[5]; Phase II clinical trial, of the conjugated cytotoxic molecule
  toxicity: unexpected toxicity
